Source: paper PMC9635925, “Biological screening of a unique drug library targeting MRGPRX2” (Frontiers in Immunology, 2022)
Residue numbers refer to the chain shown, from its start. Counter-ions that a name gives are not always drawn.

How the values were obtained:
[1] = target: T1, MRGPRX2-MUT (MRGPRX2 N62S mutation) (Homo sapiens, UniProt Q96LB1, N62S); experiment: Primary HTS, Ca2+ mobilization (fluorescence ratio, B-score) in HEK293-Gα15 cells stably expressing the MRGPRX2 N62S mutation; format: cell-based; settings: for B-scores (MUT): 10 μM compound, MRGPRX2-MUT (N62S) cells; for Change of B-scores (%): 10 μM
T1 construct: expressed in transfected cells
T1 sequence (Q96LB1 1-330 N62S): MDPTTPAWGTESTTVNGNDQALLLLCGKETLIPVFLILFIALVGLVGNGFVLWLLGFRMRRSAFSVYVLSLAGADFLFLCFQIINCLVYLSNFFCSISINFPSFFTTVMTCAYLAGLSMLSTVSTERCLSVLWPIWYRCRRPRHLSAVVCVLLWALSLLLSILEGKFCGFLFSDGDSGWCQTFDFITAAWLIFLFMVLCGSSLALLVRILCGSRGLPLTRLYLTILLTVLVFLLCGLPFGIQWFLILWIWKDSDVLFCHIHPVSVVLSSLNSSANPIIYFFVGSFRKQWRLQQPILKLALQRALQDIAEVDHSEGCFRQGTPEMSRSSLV
Method: (§1) We performed an experimental HTS on the Johns Hopkins Drug Library, which includes 1,811 (57%) FDA-approved drugs among 3,456 total compounds (28% of all known drugs worldwide) ([15]). We performed the HTS at the Johns Hopkins University ChemBioCORE Facility and employed HEK293-Gα15 cell lines that stably expressed MRGPRX2 protein.
(§2) We utilized 10 μM compounds (each compound was tested in triplicate) and calculated the compound effect using the signal-to-background fluorescence ratio (see Supplementary Methods).
(§3) In the HTS, we determined MRGPRX2 activation by a Ca^2+ mobilization assay that recorded a fluorescence change by utilizing a Functional Drug Screening System (FDSS 6000; Hamamatsu); we evaluated the compound effect using the calculated fluorescence ratio. We further applied the B-score normalization, which provided robust corrections for variation in fluorescence ratio ([22]).
(§4) We performed an experimental high-throughput screening (HTS) on the Johns Hopkins Drug Library (JHDL), which includes 1,811 (57%) FDA-approved drugs among 3,456 total compounds (28% of all known drugs worldwide). The remaining compounds in JHDL are catalogued in one or more of the resources below: British Approved Names (BAN); Dénominations Communes Françaises (DCF); International Nonproprietary Names (INN); Japanese Adopted Names (JAN); MI (Merck Index); National Formulary drug name (NF); and United States Accepted Names (USAN). The JHU drug library is stocked in 96 well plates at 10 mM in 100% DMSO and stored at -80 °C. We used a final concentration of 10 uM for each compound and DMSO concentration of 0.1% (tested in triplicate). […] We evaluated compound effect using the calculated fluorescence ratio. We further calculated B-scores, which are a relative potency score similar to Z scores in that they are the ratio of an adjusted raw value in the numerator to a measure of variability in the denominator.

[2] = target: T2, MRGPRX2-WT (wild-type MRGPRX2 receptor) (Homo sapiens, UniProt Q96LB1); experiment: Primary HTS, Ca2+ mobilization (fluorescence ratio, B-score) in HEK293-Gα15 cells stably expressing wild-type MRGPRX2; format: cell-based; settings: 10 μM compound
T2 construct: expressed in transfected cells
T2 sequence (Q96LB1 1-330): T1 sequence (Q96LB1 1-330 N62S) with S62N
Method: as §1, §2, §3, §4

[3] = MRGPRX2-MUT in comparison to MRGPRX2-WT cells, Supplementary Table 1
[4] = MRGPRX2-MUT in comparison to MRGPRX2-WT cells, Table 1
[5] = MRGPRX2-MUT versus MRGPRX2-WT cells, Supplementary Table 2
[6] = Supplementary Table 2, listed as Isoprenaline

Row | Structure (SMILES) | B-scores (MUT) ([1]; Supplementary Table 1) | B-scores (MUT) ([1]; Table 1) | Change of B-scores (%) [1, 3] [%] | Change of B-scores (%) [1, 4] [%] | B-scores (WT) ([2]; Supplementary Table 1) | B-scores (WT) ([2]; Table 1) | B-scores (MUT) ([1]; Supplementary Table 2) | Change of B-scores (%) [1, 5] [%] | B-scores (WT) ([2]; Supplementary Table 2) | also measured
1 | CNCCC(Oc1ccc(C(F)(F)F)cc1)c1ccccc1 (stereo not shown) [Fluoxetine] | 7.14 | 7.14 | -80.32 | -80.32 | 36.30 | 36.30 | – | – | – | –
2 | COc1ccc2c3c1O[C@H]1C[C@@H](O)C=C[C@@]31CCN(C)C2 [Galantamine Hydrobromide] | 1.33 | – | -93.34 | – | 19.90 | – | – | – | – | –
3 | COc1ccc2c3c1O[C@H]1C[C@@H](O)C=C[C@@]31CCN(C)C2 [Galantamine] | 1.25 | – | -96.90 | – | 40.50 | – | – | – | – | –
4 | COc1ccc(CCN(C)CCCC(C#N)(c2cc(OC)c(OC)c(OC)c2)C(C)C)cc1OC (stereo not shown) [Gallopamil] | – | – | – | – | – | – | 0.2 | -97.19 | 7.16 | –
5 | CN1[C@@H]2CC(OC(=O)[C@H](CO)c3ccccc3)C[C@H]1[C@@H]1O[C@@H]12.Cl (stereo partly shown) [Hyoscine hydrochloride] | – | – | – | – | – | – | 0.57 | -94.9 | 11.2 | –
6 | CN1[C@@H]2CC[C@H]1CC(OC(=O)[C@H](CO)c1ccccc1)C2.Cl (stereo partly shown) [Hyoscyamine Hydrochloride] | – | – | – | – | – | – | 0.69 | -94.01 | 11.54 | –
7 | CN1[C@@H]2CC[C@H]1C[C@@H](OC(=O)[C@H](CO)c1ccccc1)C2 [Hyoscyamine] | – | – | – | – | – | – | 0.65 | -96.31 | 17.72 | –
8 | CC(=O)[C@]1(O)Cc2c(O)c3c(c(O)c2[C@@H](O[C@H]2C[C@H](N)[C@H](O)[C@H](C)O2)C1)C(=O)c1ccccc1C3=O [Idarubicin hydrochloride] | – | – | – | – | – | – | 39.57 | 241.86 | 11.57 | –
9 | CN(C)CCCN1c2ccccc2CCc2ccccc21 [Imipramine Hydrochloride] | 16.90 | 16.90 | -47.47 | -47.47 | 32.17 | 32.17 | 16.9 | -47.47 | 32.17 | –
10 | CC(C)CCCC(C)NC(C)C (stereo not shown) [Iproheptine] | 10.27 | – | -61.42 | – | 26.61 | – | – | – | – | –
11 | CCC(NC(C)C)C(O)c1ccc(O)c(O)c1 (stereo not shown) [Isoetharine Mesylate] | 0.60 | – | -97.97 | – | 29.54 | – | – | – | – | –
12 | CC(C)NCC(O)c1ccc(O)c(O)c1 (stereo not shown) [Isoproterenol Hydrochloride] | – | – | -100.26 | – | 20.95 | – | -0.05 | -100.26 | 20.95 | Change of B-scores (%) ([1]; MRGPRX2-MUT in comparison to MRGPRX2-WT cells, Supplementary Table 1, listed as Isoprenaline hydrochloride): -100.25%; B-scores (WT) ([2]; Supplementary Table 1, listed as Isoprenaline hydrochloride): 21.82
13 | CC(C)NCC(O)c1ccc(O)c(O)c1 (stereo not shown) [Isoproterenol] | 6.75 | – | -64.69 | – | 19.12 | – | – | – | – | B-scores (MUT) [1, 6]: 6.75; Change of B-scores (%) ([1]; MRGPRX2-MUT versus MRGPRX2-WT cells, Supplementary Table 2, listed as Isoprenaline): -64.69%; B-scores (WT) [2, 6]: 19.12
14 | CN1CCC(=C2c3ccccc3CC(=O)c3sccc32)CC1 [Ketotifen Fumarate] | 0.81 | 0.81 | -96.52 | -96.52 | 23.14 | 23.14 | – | – | – | –
15 | CN1CCC(=C2c3ccccc3CC(=O)c3sccc32)CC1 [Ketotifen] | 1.38 | 1.38 | -93.13 | -93.13 | 20.12 | 20.12 | – | – | – | –
16 | CC(C)(C)NC[C@H](O)c1ccc(O)c(CO)c1 [Levalbuterol] | – | – | – | – | – | – | 1.63 | -86.62 | 12.18 | –
17 | C[C@H]1COc2c(N3CCN(C)CC3)c(F)cc3c(=O)c(C(=O)O)cn1c23 [Levofloxacin] | 0.74 | -0.74 | -101.85 | -101.85 | 39.73 | 39.73 | – | – | – | –
18 | CCOC(=O)N1CCC(=C2c3ccc(Cl)cc3CCc3cccnc32)CC1 [Loratadine] | – | -3.30 | -115.04 | -115.04 | 21.95 | 21.95 | – | – | – | –
19 | Cc1ccc(NC(=O)c2ccc(CN3CCN(C)CC3)cc2)cc1Nc1nc(-c2cccnc2)cs1 [Masitinib] | 3.82 | 3.82 | -86.20 | -86.20 | 27.71 | 27.71 | 3.82 | -86.2 | 27.71 | –
20 | CN1CCc2c(c3ccccc3n2Cc2ccccc2)C1.CN1CCc2c(c3ccccc3n2Cc2ccccc2)C1.O=S(=O)(O)c1cccc2c(S(=O)(=O)O)cccc12 [Mebhydrolin Naphthalenesulfonate] | 1.93 | 1.93 | -92.39 | -92.39 | 25.34 | 25.34 | – | – | – | –
21 | CC12CC3CC(C)(C1)CC(N)(C3)C2 [Memantine Hydrochloride] | – | – | -99.82 | – | 26.34 | – | – | – | – | –
22 | CC(C)NCC(O)c1cc(O)cc(O)c1 (stereo not shown) [Metaproterenol] | 2.41 | – | -88.28 | – | 20.54 | – | 2.41 | -88.28 | 20.54 | –
23 | CC(=O)OC(C)C[N+](C)(C)C (stereo not shown) [Methacholine Chloride] | 37.31 | – | 43.29 | – | 26.04 | – | – | – | – | –
24 | CC(=O)Oc1cc(C(C)C)c(OCCN(C)C)cc1C [Moxisylyte Hydrochloride] | 1.32 | – | -94.42 | – | 23.69 | – | – | – | – | –
25 | NC[C@H](O)c1ccc(O)c(O)c1 [Norepinephrine] | 7.54 | – | -73.85 | – | 28.83 | – | – | – | – | –
26 | CCn1cc(C(=O)O)c(=O)c2cc(F)c(N3CCNCC3)cc21 [Norfloxacin] | – | 0.05 | -99.81 | -99.81 | 28.07 | 28.07 | 0.05 | -99.81 | 28.07 | –
27 | CNCCC=C1c2ccccc2CCc2ccccc21 [Nortriptyline Hydrochloride] | – | – | – | – | – | – | 2.78 | -82.96 | 16.29 | –
28 | NCCC(O)(P(=O)([O-])O)P(=O)([O-])O.[Na+].[Na+] [Pamidronate disodium] | 18.72 | – | -37.79 | – | 30.08 | – | – | – | – | –
